Peptide text beside a SMILES is read from it. * marks the point of attachment. Cbz = O=C(OCc1ccccc1)*
Assays:
DLK [1] = experiment: Western blot for DLK in unstressed embryonic DRG neurons cultured with NGF, treated for three hours; assay type: cell-based, mouse; details: DRGs +NGF, 3 hours; OA 200 nM, MG132 30 μM
Protocol: (§1) Dorsal root ganglia were dissected from E12.5 to E13.5 mouse embryos, trypsinized (except in the case of explants), and cultured in F12 medium containing N3 supplement, 40 mM glucose, and 25 ng/mL NGF on chamber slides coated with poly-d-lysine and laminin (BioCoat, BD). The day after plating, 3 μM arabinofuranoside (AraC, Sigma) was added to the medium, removed two days later, and the medium was replaced with N3/F12/NGF without AraC. For NGF withdrawal experiments, after 4 to 5 days in vitro, medium was replaced with medium containing no NGF and 25 μg/mL anti-NGF antibody (Genentech) for between 1 and 3 hours.
DRG cultures were lysed by incubation on ice for 30 min. in buffer containing 50 mM Tris pH 7.5, 150 mM NaCl, 5 mM EDTA, and 0.1% Triton X-100. HEK 293T cells were lysed by incubation on ice for 30 min. in radioimmunoprecipitation assay (RIPA) buffer. Retina and nerve tissue samples were lysed in RIPA buffer using a TissueLyser (Qiagen) with a 3 mm tungsten carbide bead (Qiagen) for 6 min. Unless otherwise noted, all lysis solutions contained Complete protease inhibitor cocktail and PhosSTOP phosphatase inhibitor cocktail (Roche). Protein concentrations of 293T and retina lysates were determined by BCA assay (Pierce). Samples were loaded on NuPAGE 4-12% Bis-Tris gels (Invitrogen) and subjected to standard immunoblotting procedures. Except where noted, gels blotted for DLK were run in MOPS buffer (Invitrogen). Due to the large size of Phr1, samples blotted for Phr1 were run on 3-8% Tris-Acetate gels (Invitrogen). Blots were visualized with chemiluminescence and exposure to film. For relative protein expression and molecular weight quantifications, blots were also visualized on a Chemidoc (Bio-Rad). Quantifications were performed in ImageLab (Bio-Rad). Protein expression was standardized to a loading control (actin or tubulin). Molecular weight was standardized to Precision Plus Protein WesternC Standards (Bio-Rad).

murine DLK = experiment: SILAC mass spectrometry of DLK phosphorylation sites in 293T cells expressing Flag-tagged DLK; assay type: cell-based, mouse; details: WT DLK, okadaic acid 200 nM
Protocol: To identify functionally relevant phosphorylation sites on DLK, mass spectrometry in conjunction with stable isotope labeling by amino acids in cell culture (SILAC) was used. For these studies, 293T cells expressing FLAG-tagged DLK were cultured in SILAC media containing isotopically enriched (Heavy) versions of lysine (^13C6^15N2) and arginine (^13C6^15N4) or their unlabeled counterparts (Light). Four paired conditions (Light vs. Heavy) were established to dissect the effects of JNK and DLK activities on the overall abundance of DLK and the extent of DLK phosphorylation: 1) Wild-type (WT) DLK vs. DLK^S302A, 2) DLK^S302A vs. DLK^S302A co-expressed with a constitutively active JNK construct (Lei, K. et al. Molecular and cellular biology 22, 4929-4942 (2002)), 3) WT DLK vs. WT DLK with JNK inhibitor, and 4) WT DLK vs. WT DLK with okadaic acid (FIG. 5a).

DLK [2] = experiment: JNK3 siRNA knockdown in JNK2 knockout DRGs with NGF withdrawal, blot for DLK; assay type: cell-based, mouse; details: JNK2 KO embryonic DRGs, compared to control siRNA
Protocol: as §1
For siRNA experiments, dissociated DRGs were transfected using the Amaxa nucleofection system (Lonza). JNK3 siRNA (sense 5′-ACATCGTAGTCAAGTCTGATTT-3′ (SEQ ID NO:10), antisense 5′-ATCAGACTTGACTACGATGTTT (SEQ ID NO:11)) was synthesized at Genentech (Kim, M. J. et al. Neuron 56, 488-502 (2007)). Control siRNA was ON-TARGETplus Non-targeting siRNA #1 from Dharmacon.
DRG cultures were lysed by incubation on ice for 30 min. in buffer containing 50 mM Tris pH 7.5, 150 mM NaCl, 5 mM EDTA, and 0.1% Triton X-100. […] Protein concentrations of 293T and retina lysates were determined by BCA assay (Pierce). […] For relative protein expression and molecular weight quantifications, blots were also visualized on a Chemidoc (Bio-Rad). Quantifications were performed in ImageLab (Bio-Rad). […]

DLK [3] = experiment: DLK expression in stable cell line with dox-inducible DLK construct treated with JNK inhibitors; assay type: cell-based; details: inhibitors at 10 μM
Protocol: HEK 293T cells were lysed by incubation on ice for 30 min. in radioimmunoprecipitation assay (RIPA) buffer. […] Unless otherwise noted, all lysis solutions contained Complete protease inhibitor cocktail and PhosSTOP phosphatase inhibitor cocktail (Roche). Protein concentrations of 293T and retina lysates were determined by BCA assay (Pierce). Samples were loaded on NuPAGE 4-12% Bis-Tris gels (Invitrogen) and subjected to standard immunoblotting procedures. Except where noted, gels blotted for DLK were run in MOPS buffer (Invitrogen). […] Blots were visualized with chemiluminescence and exposure to film. For relative protein expression and molecular weight quantifications, blots were also visualized on a Chemidoc (Bio-Rad). Quantifications were performed in ImageLab (Bio-Rad). Protein expression was standardized to a loading control (actin or tubulin). Molecular weight was standardized to Precision Plus Protein WesternC Standards (Bio-Rad).
A stable cell line that expressed DLK in a doxicyclin-inducible fashion was used and cells were treated with two structurally distinct JNK inhibitors (FIG. 4c).

Compound | apparent molecular weight / phosphorylation of DLK (DLK [1]) | total levels of DLK protein (DLK [1]) | fold change in phosphorylation of T43, okadaic-acid-treated vs untreated cells expressing DLK (murine DLK) | increase in DLK quantity with NGF withdrawal (DLK [2]) | DLK expression (levels of DLK protein) (DLK [3])
CC(C)C[C@@H](C=O)NC(=O)[C@H](CC(C)C)NC(=O)[C@H](CC(C)C)NC(=O)OCc1ccccc1 [MG132] (Cbz-Leu-Leu-Leu-aldehyde) | without an increase in DLK phosphorylation | produced an increase in DLK levels |  |  | 
C=C1[C@@H](O)[C@@H]2O[C@]3(CC[C@H](/C=C/[C@@H](C)[C@@H]4CC(C)=C[C@@]5(O[C@H](C[C@@](C)(O)C(=O)O)CC[C@H]5O)O4)O3)CC[C@H]2O[C@@H]1[C@@H](O)C[C@H](C)[C@H]1O[C@@]2(CCCCO2)CC[C@H]1C [okadaic acid] | sufficient to increase both the apparent molecular weight and total levels of DLK | sufficient to increase both the apparent molecular weight and total levels of DLK | 7.78 fold |  | 
JNK3 siRNA: siRNA, sense 5′-ACATCGTAGTCAAGTCTGATTT-3′ (SEQ ID NO:10), antisense SEQ ID NO:11, synthesized at Genentech (sense ACATCGTAGTCAAGTCTGATTT; antisense ATCAGACTTGACTACGATGTTT; listed as DNA, chemistry not given here) |  |  |  | attenuated the increase in DLK | 
JNK Inhibitor VII (TAT-TI-JIP153-163) [JNK7] |  |  |  |  | reduces DLK expression
